Measured values published in patent publication US8003785B2 (Takeda Pharmaceutical Company Limited, priority 2008, dated 2011).

Target: T1, PLK1 (Homo sapiens, UniProt P53350)
T1 construct: Full-length, active GST-PLK1 is purified from Sf9 insect cells; made in house; host or cells: Sf9 insect cells
Experiment: Biochemical Characterization Assay: HTRF kinase assay, GST-PLK1 phosphorylation of GST-p53
Details: GST-PLK1, GST-p53 substrate
Method in brief: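 Full-length active GST-PLK1 (Sf9, 3 ug/mL) phosphorylated full-length GST-p53 (E. coli) in Kinase Assay Buffer for 35 min at 37 °C. Stopped with EDTA; phospho-p53 detected by HTRF with anti-phospho-p53, Eu-anti-rabbit and APC-anti-GST antibodies.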

T1 sequence (P53350 whole entry): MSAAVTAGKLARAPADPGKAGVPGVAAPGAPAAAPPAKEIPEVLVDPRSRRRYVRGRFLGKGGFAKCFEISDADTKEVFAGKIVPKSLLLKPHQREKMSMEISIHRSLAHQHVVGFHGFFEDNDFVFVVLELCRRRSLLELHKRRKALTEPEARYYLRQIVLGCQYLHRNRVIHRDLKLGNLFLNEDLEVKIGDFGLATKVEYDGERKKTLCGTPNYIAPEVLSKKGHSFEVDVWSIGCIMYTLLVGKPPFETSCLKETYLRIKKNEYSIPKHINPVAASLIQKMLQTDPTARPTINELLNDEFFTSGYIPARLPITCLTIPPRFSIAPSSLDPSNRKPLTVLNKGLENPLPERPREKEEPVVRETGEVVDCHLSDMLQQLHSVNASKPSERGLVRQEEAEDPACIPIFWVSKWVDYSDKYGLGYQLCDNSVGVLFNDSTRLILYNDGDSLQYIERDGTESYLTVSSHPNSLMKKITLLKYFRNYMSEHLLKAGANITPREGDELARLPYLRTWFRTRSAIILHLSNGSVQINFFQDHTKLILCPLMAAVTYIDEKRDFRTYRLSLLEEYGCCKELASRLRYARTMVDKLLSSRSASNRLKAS

| Structure (SMILES) | IC50 [nM] | IC50 (ATP) [nM] |
| --- | --- | --- |
| CCOc1cc(C(=O)NC2CCN(CC)CC2)ccc1Nc1ncc2c(n1)N(C1CCCC1)CC(F)(F)C(=O)N2C [Example I-216, 4-(9-cyclopentyl-7,7-difluoro-5-methyl-6-oxo-6,7,8,9-tetrahydro-5H-pyrimido[4,5-b][1,4]diazepin-2-ylamino)-3-ethoxy-N-(1-ethyl-piperidin-4-yl)-benzamide] | 1 to 50 | – |
| COc1cc(C(=O)NCCCNC2CCCCC2)ccc1Nc1ncc2c(n1)N(C1CCCC1)CC(F)(F)C(=O)N2C [Example I-53, N-(3-cyclohexylamino-propyl)-4-(9-cyclopentyl-7,7-difluoro-5-methyl-6-oxo-6,7,8,9-tetrahydro-5H-pyrimido[4,5-b][1,4]diazepin-2-ylamino)-3-methoxy-benzamide] | – | 1 to 50 |
| COc1cc(C(=O)N[C@H]2CC[C@@H](N3CCN(CC4CC4)CC3)CC2)ccc1Nc1ncc2c(n1)N(C(C)C)CC(F)(F)C(=O)N2C [Example I-301, N-[cis-4-(4-cyclopropylmethyl-piperazin-1-yl)-cyclohexyl]-4-(7,7-difluoro-9-isopropyl-5-methyl-6-oxo-6,7,8,9-tetrahydro-5H-pyrimido[4,5-b][1,4]diazepin-2-ylamino)-3-methoxy-benzamide] | 1 to 50 | – |
| COc1cc(C(=O)NC2CCN(C)CC2)ccc1Nc1ncc2c(n1)N(C1CCC1)CC(F)(F)C(=O)N2C [Example I-4, 4-(9-cyclobutyl-7,7-difluoro-5-methyl-6-oxo-6,7,8,9-tetrahydro-5H-pyrimido[4,5-b][1,4]diazepin-2-ylamino)-3-methoxy-N-(1-methyl-piperidin-4-yl)-benzamide] | – | 1 to 50 |
| COc1cc(C(=O)NC2CCNCC2)ccc1Nc1ncc2c(n1)N(C1CCCC1)CC(F)(F)C(=O)N2C [Example I-72, 4-(9-cyclopentyl-7,7-difluoro-5-methyl-6-oxo-6,7,8,9-tetrahydro-5H-pyrimido[4,5-b][1,4]diazepin-2-ylamino)-3-methoxy-N-piperidin-4-yl-benzamide] | – | 1 to 50 |
| COc1cc(C(=O)NCCCN(C)C)ccc1Nc1ncc2c(n1)N(C(C)C)CC(F)(F)C(=O)N2C [Example I-296, 4-(7,7-difluoro-9-isopropyl-5-methyl-6-oxo-6,7,8,9-tetrahydro-5H-pyrimido[4,5-b][1,4]diazepin-2-ylamino)-N-(3-dimethylamino-propyl)-3-methoxy-benzamide] | 1 to 50 | – |
| COc1cc(C(=O)NC2CCN(S(C)(=O)=O)CC2)ccc1Nc1ncc2c(n1)N(C1CCCCC1)CC(F)(F)C(=O)N2C [Example I-268, 4-(9-cyclohexyl-7,7-difluoro-5-methyl-6-oxo-6,7,8,9-tetrahydro-5H-pyrimido[4,5-b][1,4]diazepin-2-ylamino)-N-(1-methanesulfonyl-piperidin-4-yl)-3-methoxy-benzamide] | 51 to 500 | – |
| COc1cc(C(=O)NC2CCN(C)CC2)ccc1Nc1ncc2c(n1)N(C(C)C)CC(F)(F)C(=O)N2C [Example I-293, 4-(7,7-difluoro-9-isopropyl-5-methyl-6-oxo-6,7,8,9-tetrahydro-5H-pyrimido[4,5-b][1,4]diazepin-2-ylamino)-3-methoxy-N-(1-methyl-piperidin-4-yl)-benzamide] | 1 to 50 | – |
| CCN1C(=O)C(F)(F)CN(C2CCCC2)c2nc(Nc3ccc(C(=O)NC4CCN(C)CC4)cc3)ncc21 [Example I-141, 4-(9-cyclopentyl-5-ethyl-7,7-difluoro-6-oxo-6,7,8,9-tetrahydro-5H-pyrimido[4,5-b][1,4]diazepin-2-ylamino)-N-(1-methyl-piperidin-4-yl)-benzamide] | – | 51 to 500 |
| COc1cc(C(=O)NC2CCN(c3ccccn3)CC2)ccc1Nc1ncc2c(n1)N(C1CCCC1)CC(F)(F)C(=O)N2C [Example I-108, 4-(9-cyclopentyl-7,7-difluoro-5-methyl-6-oxo-6,7,8,9-tetrahydro-5H-pyrimido[4,5-b][1,4]diazepin-2-ylamino)-3-methoxy-N-(3,4,5,6-tetrahydro-2H-[1,2′]bipyridinyl-4-yl)-benzamide] | – | 1 to 50 |
